The IC50 is the point on the concentration scale where inhibition reaches its midpoint. Low values mean greater potency, high ones weaker potency. As a reminder, the EC50 is the concentration that produces a half-maximal response.

Some results are limits rather than exact numbers.

The source of these data is patent publication US8415351B2 (priority 2007, dated 2013).

Experiment [1] addresses T1, HCV polymerase 1A (Δ21 NS5B, H77) (Hepatitis C virus genotype 1a, UniProt P27958).
T1 construct: 20 to 50 nM Δ21 NS5B
Put plainly: biochemical. The note with it: IC50 1a. How it is done:
(§1) HCV Polymerase Inhibition Assay
The reaction was initiated by the addition of 20 μM CTP, 20 μM ATP, 1 μM ^3H-UTP (10 mCi/umol), 5 nM template RNA and 0.1 U/μl RNase inhibitor (RNasin, Promega), and allowed to proceed for 2 to 4 h at room temperature. Reaction volume was 50 μl. The reaction was terminated by the addition of 1 volume of 4 mM spermine in 10 mM Tris-Cl pH 8.0, 1 mM EDTA. After incubation for at least 15 min at room temperature, the precipitated RNA was captured by filtering through a GF/B filter (Millipore) in a 96 well format. The filter plate was washed three times with 200 μl each of 2 mM spermine, 10 mM Tris-Cl pH 8.0, 1 mM EDTA, and 2 times with ethanol. After air-drying, 30 μl of Microscint 20 scintillation cocktail (Packard) was added to each well, and the retained cpm were determined by scintillation counting. […] Retained cpm were plotted vs. inhibitor concentration and fit to equation 1 using non-linear regression (ref. 1) to obtain the IC50 values: Retained cpm=A[sqrt{(IC50+It−Et)^2+4*IC50*Et}−(IC50+It−Et)]
Ref. Morrison, J. F. and S. R. Stone. […] Approaches to the study and analysis of the inhibition of enzymes by slow- and tight-binding inhibitors. Comments Mol. Cell. Biophys.
The sequence of the template RNA used was: 5′-[…]

For experiment [2], the target named is T2, HCV polymerase 1B (Δ21 NS5B, BK) (Hepatitis C virus genotype 1b, UniProt P26663).
T2 construct: 20 to 50 nM Δ21 NS5B
T2 sequence (P26663 2420-2989, stated change not applied): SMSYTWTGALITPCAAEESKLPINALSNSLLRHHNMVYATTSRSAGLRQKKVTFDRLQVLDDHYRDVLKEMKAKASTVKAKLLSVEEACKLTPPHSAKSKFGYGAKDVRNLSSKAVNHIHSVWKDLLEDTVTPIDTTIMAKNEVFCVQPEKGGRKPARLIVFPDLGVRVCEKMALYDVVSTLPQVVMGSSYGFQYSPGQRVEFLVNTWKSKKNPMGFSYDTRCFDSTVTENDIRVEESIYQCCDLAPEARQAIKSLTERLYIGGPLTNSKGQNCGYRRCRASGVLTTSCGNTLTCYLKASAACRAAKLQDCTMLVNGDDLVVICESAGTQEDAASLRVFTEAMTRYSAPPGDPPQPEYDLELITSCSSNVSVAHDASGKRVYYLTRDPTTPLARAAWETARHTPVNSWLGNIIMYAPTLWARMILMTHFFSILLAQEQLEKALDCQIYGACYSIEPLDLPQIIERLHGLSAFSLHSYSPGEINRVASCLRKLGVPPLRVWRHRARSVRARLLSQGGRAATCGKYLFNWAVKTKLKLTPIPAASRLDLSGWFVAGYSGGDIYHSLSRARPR
Kind of experiment: biochemical. How it is done:
as §1
Either two-fold serial dilutions (fractional inhibition assay) or a narrower range of dilutions spanning the IC50 of the inhibitor (tight binding assay) of the inhibitors were incubated with 20 mM Tris-Cl pH 7.4, 2 mM MnCl2, 1 mM dithiothreitol, 1 mM ethylene diamine tetraacetic acid (EDTA), 60 to 125 μM GTP and 20 to 50 nM Δ21 NS5B (HCV Strain 1B (BK, Genbank accession number M58335, or H77, Genbank accession number AF011751)) for 15 min at room temperature. The reaction was initiated by the addition of 20 μM CTP, 20 μM ATP, 1 μM ^3H-UTP (10 mCi/umol), 5 nM template RNA and 0.1 U/μl RNase inhibitor (RNasin, Promega), and allowed to proceed for 2 to 4 h at room temperature. Reaction volume was 50 μl. The reaction was terminated by the addition of 1 volume of 4 mM spermine in 10 mM Tris-Cl pH 8.0, 1 mM EDTA. After incubation for at least 15 min at room temperature, the precipitated RNA was captured by filtering through a GF/B filter (Millipore) in a 96 well format. The filter plate was washed three times with 200 μl each of 2 mM spermine, 10 mM Tris-Cl pH 8.0, 1 mM EDTA, and 2 times with ethanol. After air-drying, 30 μl of Microscint 20 scintillation cocktail (Packard) was added to each well, and the retained cpm were determined by scintillation counting. […] Retained cpm were plotted vs. inhibitor concentration and fit to equation 1 using non-linear regression (ref. 1) to obtain the IC50 values: Retained cpm=A[sqrt{(IC50+It−Et)^2+4*IC50*Et}−(IC50+It−Et)]
Ref. Morrison, J. F. and S. R. Stone. 1985. Approaches to the study and analysis of the inhibition of enzymes by slow- and tight-binding inhibitors. Comments Mol. Cell. Biophys. 2: 347-368.
The sequence of the template RNA used was: 5′-[…] […] […] […] […] […] […] […] […] […] […] […] […] […] […] […] […]-3′ (SEQ ID NO: 1)

Experiment [3] concerns genotype 1b-Con1 subgenomic replicon cell line. Kind of experiment: microbe, parasite or virus in culture. The format is cell-based, HCV. The following applies: Hepatitis C virus, read-out: EC50 1b.
Experiment [4] has as its system genotype 1a-H77 subgenomic replicon cell line. Kind of experiment: microbe, parasite or virus in culture. It counts as cell-based, HCV. The note with it: Hepatitis C virus, read-out: EC50 1a.

T1 sequence (P27958 2421-2990, stated change not applied): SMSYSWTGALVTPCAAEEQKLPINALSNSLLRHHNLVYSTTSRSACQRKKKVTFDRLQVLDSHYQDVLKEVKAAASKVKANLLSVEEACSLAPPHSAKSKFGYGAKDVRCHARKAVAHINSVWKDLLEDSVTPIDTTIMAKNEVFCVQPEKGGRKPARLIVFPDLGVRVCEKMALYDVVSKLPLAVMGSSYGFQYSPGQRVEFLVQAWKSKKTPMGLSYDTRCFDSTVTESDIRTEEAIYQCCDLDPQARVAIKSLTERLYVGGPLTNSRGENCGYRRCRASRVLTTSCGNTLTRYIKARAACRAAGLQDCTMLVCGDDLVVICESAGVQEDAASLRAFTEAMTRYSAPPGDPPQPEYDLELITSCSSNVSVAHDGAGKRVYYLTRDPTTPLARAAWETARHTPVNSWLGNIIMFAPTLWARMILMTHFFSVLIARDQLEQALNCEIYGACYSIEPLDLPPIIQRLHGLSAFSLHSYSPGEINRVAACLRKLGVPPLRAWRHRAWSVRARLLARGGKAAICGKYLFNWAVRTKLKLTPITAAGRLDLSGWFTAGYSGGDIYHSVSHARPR

For `CC(C)(C)OC(=O)NC1CCN(Cc2cc(N3CCC(=O)NC3=O)cc(C(C)(C)C)c2O)C1` (stereo not drawn) [IA-L5-1-1.12, {1-[3-tert-butyl-5-(2,4-dioxo-tetrahydro-pyrimidin-1-yl)-2-hydroxy-benzyl]-pyrrolidin-3-yl}-carbamic acid tert-butyl ester], the half-inhibitory concentration (IC50) in experiment [1] and in experiment [2] was greater than 1000 nM in each case.
With `CS(=O)(=O)Nc1ccc(NC(=O)c2cc(N3CCC(=O)NC3=O)ccc2O)cc1` [IA-L3-1.114, 5-(2,4-dioxotetrahydropyrimidin-1(2H)-yl)-2-hydroxy-N-(4-(methylsulfonamido)phenyl)benzamide], the IC50 in experiment [1] and in experiment [2] was greater than 1000 nM throughout.
Take `CC(C)(C)c1cc(N2CCC(=O)NC2=O)cc(CN2CCOCC2)c1O` [IA-L5-1-1.14, 1-(3-tert-butyl-4-hydroxy-5-(morpholinomethyl)phenyl)dihydropyrimidine-2,4(1H,3H)-dione 2,2,2-trifluoroacetate]: the IC50 in experiment [1] and in experiment [2] was greater than 1000 nM throughout.
`CCOC(=O)N(c1ccc(NC(=O)c2cc(N3CCC(=O)NC3=O)cc(C(C)(C)C)c2OC)cc1)S(C)(=O)=O` [IA-L3-1.74, Ethyl 4-(3-tert-butyl-5-(2,4-dioxotetrahydropyrimidin-1(2H)-yl)-2-methoxybenzamido)-phenyl(methylsulfonyl)carbamate]: the IC50 in experiment [1] and in experiment [2] was greater than 1000 nM each time.
Take `CC(C)(C)c1cc(N2CCC(=O)NC2=O)cc(C(=O)Nc2ccc(OCC#N)cc2)c1O` [IA-L3-1.17, 3-tert-butyl-N-(4-(cyanomethoxy)phenyl)-5-(2,4-dioxotetrahydropyrimidin-1(2H)-yl)-2-hydroxybenzamide]: the EC50 in experiment [3] and in experiment [4] was greater than 1000 nM each time. The same compound came in with an IC50 in experiment [1] greater than 1000 nM.
On to `CC(C)(C)c1cc(N2CCC(=O)NC2=O)cc(C(=O)Nc2ccc(OCC(N)=O)cc2)c1O` [IA-L3-1.18, N-(4-(2-amino-2-oxoethoxy)phenyl)-3-tert-butyl-5-(2,4-dioxotetrahydropyrimidin-1(2H)-yl)-2-hydroxybenzamide], for which the EC50 in experiment [3] was 100 to 1000 nM; in experiment [4], greater than 1000 nM. In addition, the IC50 in experiment [1] was greater than 1000 nM.
With `COC(=O)C(C)(C)c1cc(-n2ccc(=O)[nH]c2=O)cc(-c2ccc3cc(NS(C)(=O)=O)ccc3c2)c1OC` [IB-L0-2.70, methyl 2-(5-(2,4-dioxo-3,4-dihydropyrimidin-1(2H)-yl)-2-methoxy-3-(6-(methylsulfonamido)naphthalen-2-yl)phenyl)-2-methylpropanoate], the results for the EC50 in experiment [3] and in experiment [4] were 100 to 1000 nM and greater than 1000 nM, respectively.
The matching figures for `COc1c(-c2ccc3ncsc3c2)cc(-n2ccc(=O)[nH]c2=O)cc1C(C)(C)C` [IB-L0-2.33, 1-(3-(benzo[d]thiazol-6-yl)-5-tert-butyl-4-methoxyphenyl)pyrimidine-2,4(1H,3H)-dione]: 100 to 1000 nM and 100 to 1000 nM.
The matching figures for `COc1c(-c2ccc3cc(NS(C)(=O)=O)ccc3c2)cc(-n2ccc(=O)[nH]c2=O)cc1-c1ccco1` [IB-L0-2.59, N-(6-(5-(2,4-dioxo-3,4-dihydropyrimidin-1(2H)-yl)-3-(furan-2-yl)-2-methoxyphenyl)naphthalen-2-yl)methanesulfonamide]: 10 to 100 nM and 100 to 1000 nM.
With `COc1c(-c2nc3cc(NS(C)(=O)=O)ccc3o2)cc(-n2ccc(=O)[nH]c2=O)cc1C(C)(C)C` [IB-L0-2.6, N-(2-(3-tert-butyl-5-(2,4-dioxo-3,4-dihydropyrimidin-1(2H)-yl)-2-methoxyphenyl)benzo[d]oxazol-5-yl)methanesulfonamide], the EC50 in experiment [3] was in the range of 10 to 100 nM; in experiment [4], 100 to 1000 nM.
The matching figures for `COCc1cc(NS(C)(=O)=O)ccc1/C=C/c1cc(-n2ccc(=O)[nH]c2=O)cc(C(C)(C)C)c1OC` [IB-L1-1.13, (E)-N-(4-(3-tert-butyl-5-(2,4-dioxo-3,4-dihydropyrimidin-1(2H)-yl)-2-methoxystyryl)-3-(methoxymethyl)phenyl)methanesulfonamide]: less than 10 nM and 10 to 100 nM.
The matching figures for `COc1c(-c2nc3cc(NS(C)(=O)=O)ccc3[nH]2)cc(N2CCC(=O)NC2=O)cc1C(C)(C)C` [IA-L0-2.1, N-(2-(3-tert-butyl-5-(2,4-dioxotetrahydropyrimidin-1(2H)-yl)-2-methoxyphenyl)-1H-benzo[d]imidazol-5-yl)methanesulfonamide]: greater than 1000 nM and greater than 1000 nM.
For `COc1c(/C=C/c2ccc(NS(C)(=O)=O)cc2C=O)cc(-n2ccc(=O)[nH]c2=O)cc1C(C)(C)C` [IB-L1-1.6, N-(4-{(E)-2-[3-tert-Butyl-5-(2,4-dioxo-3,4-dihydro-2H-pyrimidin-1-yl)-2-methoxy-phenyl]-vinyl}-3-formyl-phenyl)-methanesulfonamide] the same measures were less than 10 nM and less than 10 nM.
For `COc1c(/C=C/c2ccc(NS(C)(=O)=O)cc2CO)cc(-n2ccc(=O)[nH]c2=O)cc1C(C)(C)C` [IB-L1-1.10, (E)-N-(4-(3-tert-butyl-5-(2,4-dioxo-3,4-dihydropyrimidin-1(2H)-yl)-2-methoxystyryl)-3-(hydroxymethyl)phenyl)methanesulfonamide], the EC50 in experiment [3] and in experiment [4] was less than 10 nM in each case.
Regarding `COc1c(/C=C/c2ccc([N+](=O)[O-])cc2)cc(N2CCC(=O)NC2=O)cc1C(C)(C)C` [IA-L1-1.22, (E)-1-(3-tert-butyl-4-methoxy-5-(4-nitrostyryl)phenyl)dihydropyrimidine-2,4(1H,3H)-dione], the EC50 in experiment [3] is 100 to 1000 nM; in experiment [4], greater than 1000 nM.
For `COc1c(-c2nc3cc(NS(C)(=O)=O)ccc3s2)cc(N2CCC(=O)NC2=O)cc1C(C)(C)C` [IA-L0-2.4, N-(2-(3-tert-butyl-5-(2,4-dioxotetrahydropyrimidin-1(2H)-yl)-2-methoxyphenyl)benzo[d]thiazol-5-yl)methanesulfonamide] the same measures were 100 to 1000 nM and greater than 1000 nM.
The matching figures for `COc1c(-c2ccc3nc(NS(C)(=O)=O)ccc3c2)cc(-n2ccc(=O)[nH]c2=O)cc1C(C)(C)C` [IB-L0-2.5, N-(6-(3-tert-butyl-5-(2,4-dioxo-3,4-dihydropyrimidin-1(2H)-yl)-2-methoxyphenyl)quinolin-2-yl)methanesulfonamide]: less than 10 nM and 10 to 100 nM.
As for `COc1c(/C=C/c2ccc(NS(C)(=O)=O)cc2-c2ncc[nH]2)cc(-n2ccc(=O)[nH]c2=O)cc1C(C)(C)C` [IB-L1-1.16, (E)-N-(4-(3-tert-butyl-5-(2,4-dioxo-3,4-dihydropyrimidin-1(2H)-yl)-2-methoxystyryl)-3-(1H-imidazol-2-yl)phenyl)methanesulfonamide], the EC50 in experiment [3] is 10 to 100 nM; in experiment [4] it was 100 to 1000 nM.
The matching figures for `COc1c(-c2ccc3c(c2)CC[C@@]3(F)CNS(C)(=O)=O)cc(-n2ccc(=O)[nH]c2=O)cc1C(C)(C)C` [IB-L0-2.20, (S)—N-((5-(3-tert-butyl-5-(2,4-dioxo-3,4-dihydropyrimidin-1(2H)-yl)-2-methoxyphenyl)-1-fluoro-2,3-dihydro-1H-inden-1-yl)methyl)methanesulfonamide]: 10 to 100 nM and 100 to 1000 nM.
The matching figures for `CCOc1c(/C=C/c2ccc(NS(C)(=O)=O)cc2)cc(-n2ccc(=O)[nH]c2=O)cc1C(C)(C)C` [IB-L1-1.30, (E)-N-(4-(3-tert-butyl-5-(2,4-dioxo-3,4-dihydropyrimidin-1(2H)-yl)-2-ethoxystyryl)phenyl)methanesulfonamide]: 10 to 100 nM and 100 to 1000 nM.
